pIC50: −log10 of the molar value. Read-outs that look alike come from different tables or passages of the source.
Key:
Type in all cases: biochemical
[1] = target: CDK6/CCND1 (Homo sapiens, UniProt Q00534); assay: CDK6 homogeneous time-resolved fluorescence (HTRF) kinase assay; conditions: CDK6/CCND
Outline: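 1 nM enzyme, 1 mM ATP, 50 nM ULight-4E-BP1 (Thr37/46) peptide, 1% DMSO; 20 min compound preincubation, 60 min reaction, 23 °C. EDTA stop, 2 nM Eu-anti-phospho-4E-BP1 antibody 60 min. TR-FRET 665 nm (or 665/615 ratio); IC50 from 11-point half-log titration, top 10 μM.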

[2] = target: CDK1/CCNB1 (Homo sapiens, UniProt P06493); assay: CDK1 homogeneous time-resolved fluorescence (HTRF) kinase assay; conditions: CDK1/CCNB
Outline: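 Compounds, titrated 11 points in half-log steps typically from 10 μM, were incubated with enzyme for 20 min before ATP (1 mM) and ULight-labelled eIF4E-binding protein 1 peptide (50 nM) started a 60-min reaction at 23 °C. Phosphopeptide was detected by europium-antibody TR-FRET and IC50 values were derived.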

[3] = target: CDK4/CCND3 (Homo sapiens, UniProt P11802); assay: CDK4 homogeneous time-resolved fluorescence (HTRF) kinase assay; conditions: CDK4/CCND
Outline: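 Inhibition of CDK4/CCND3 (1.5 nM) was measured at high ATP (1 mM) using 50 nM ULight-labelled 4E-BP1 Thr37/46 peptide; detection used 2 nM europium anti-phospho antibody after EDTA quench. IC50 values came from 11-point half-log titrations typically starting at 10 μM.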

[4] = target: CDK2/CCNE1 (Homo sapiens, UniProt P24941); assay: CDK2 homogeneous time-resolved fluorescence (HTRF) kinase assay; conditions: CDK2/CCNE
Outline: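 3 nM CDK2/CCNE1 was preincubated with compound for 20 min at 23 °C in HEPES buffer (pH not stated), then reacted 60 min with 1 mM ATP and 50 nM ULight-4E-BP1 (Thr37/46) peptide. After EDTA stop, Eu-anti-phospho-4E-BP1 antibody (2 nM) was added for 60 min and TR-FRET read at 665 nm.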

[5] = 25-250 nM marked x, read-out: CDK6/CCND IC50 25-250 nM
[6] = 25-250 nM marked x, read-out: CDK1/CCNB IC50 25-250 nM
[7] = 25-250 nM marked x, read-out: CDK4/CCND IC50 25-250 nM
[8] = <25 nM, read-out: CDK2/CCNE IC50 <25 nM
[9] = >250 nM marked x, read-out: CDK6/CCND IC50 >250 nM
[10] = >250 nM marked x, read-out: CDK1/CCNB IC50 >250 nM
[11] = >250 nM marked x, read-out: CDK4/CCND IC50 >250 nM
[12] = 25-250 nM marked x, read-out: CDK2/CCNE IC50 25-250 nM
[13] = <25 nM, read-out: CDK4/CCND IC50 <25 nM
[14] = >250 nM marked x, read-out: CDK2/CCNE IC50 >250 nM

Chain of CDK4/CCND3 (P11802 whole entry): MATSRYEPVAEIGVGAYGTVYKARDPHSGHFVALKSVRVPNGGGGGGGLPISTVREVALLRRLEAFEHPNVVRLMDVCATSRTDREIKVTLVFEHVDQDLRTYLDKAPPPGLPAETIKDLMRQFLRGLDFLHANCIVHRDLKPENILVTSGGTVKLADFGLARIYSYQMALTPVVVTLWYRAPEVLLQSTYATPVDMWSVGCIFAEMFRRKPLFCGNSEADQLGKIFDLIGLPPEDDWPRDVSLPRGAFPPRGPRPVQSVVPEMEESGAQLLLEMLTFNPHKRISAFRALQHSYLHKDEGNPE
Chain of CDK4/CCND3 (P30281 whole entry partner): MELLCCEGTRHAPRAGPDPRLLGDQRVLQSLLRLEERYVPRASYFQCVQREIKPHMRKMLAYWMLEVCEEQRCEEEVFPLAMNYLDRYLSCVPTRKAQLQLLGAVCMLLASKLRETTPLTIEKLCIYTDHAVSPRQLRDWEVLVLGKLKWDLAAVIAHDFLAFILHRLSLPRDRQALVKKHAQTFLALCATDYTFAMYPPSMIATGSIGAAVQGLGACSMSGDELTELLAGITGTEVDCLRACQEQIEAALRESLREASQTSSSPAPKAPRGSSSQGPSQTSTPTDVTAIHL
Chain of CDK1/CCNB1 (P06493 whole entry): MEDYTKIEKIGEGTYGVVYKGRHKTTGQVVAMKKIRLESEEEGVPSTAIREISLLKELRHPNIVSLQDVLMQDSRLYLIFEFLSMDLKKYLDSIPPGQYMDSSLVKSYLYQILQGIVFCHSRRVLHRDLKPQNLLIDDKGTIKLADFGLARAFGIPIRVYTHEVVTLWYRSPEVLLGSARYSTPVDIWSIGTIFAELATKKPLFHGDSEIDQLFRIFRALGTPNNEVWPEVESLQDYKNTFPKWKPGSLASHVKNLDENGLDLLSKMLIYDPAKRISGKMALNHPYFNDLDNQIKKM
Chain of CDK1/CCNB1 (P14635 whole entry partner): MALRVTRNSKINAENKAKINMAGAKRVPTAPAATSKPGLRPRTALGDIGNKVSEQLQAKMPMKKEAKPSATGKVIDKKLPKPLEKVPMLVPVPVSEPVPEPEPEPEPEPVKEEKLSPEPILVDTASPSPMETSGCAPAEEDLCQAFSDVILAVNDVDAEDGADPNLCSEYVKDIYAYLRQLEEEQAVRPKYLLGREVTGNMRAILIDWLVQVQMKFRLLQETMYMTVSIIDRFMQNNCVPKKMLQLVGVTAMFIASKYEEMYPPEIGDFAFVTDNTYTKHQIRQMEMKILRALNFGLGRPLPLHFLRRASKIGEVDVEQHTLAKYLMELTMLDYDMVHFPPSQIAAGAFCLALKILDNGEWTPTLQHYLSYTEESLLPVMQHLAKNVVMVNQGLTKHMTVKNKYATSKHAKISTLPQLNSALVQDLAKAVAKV
Chain of CDK6/CCND1 (Q00534 whole entry): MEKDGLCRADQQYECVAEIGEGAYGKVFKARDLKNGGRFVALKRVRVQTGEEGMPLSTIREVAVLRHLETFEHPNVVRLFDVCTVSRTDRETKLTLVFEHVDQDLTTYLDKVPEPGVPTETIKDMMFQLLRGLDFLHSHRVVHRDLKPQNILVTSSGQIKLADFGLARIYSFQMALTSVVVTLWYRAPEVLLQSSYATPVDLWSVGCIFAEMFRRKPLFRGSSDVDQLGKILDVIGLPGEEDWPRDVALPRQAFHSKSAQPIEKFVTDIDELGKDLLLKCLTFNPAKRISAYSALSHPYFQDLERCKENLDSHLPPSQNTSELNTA
Chain of CDK6/CCND1 (P24385 whole entry partner): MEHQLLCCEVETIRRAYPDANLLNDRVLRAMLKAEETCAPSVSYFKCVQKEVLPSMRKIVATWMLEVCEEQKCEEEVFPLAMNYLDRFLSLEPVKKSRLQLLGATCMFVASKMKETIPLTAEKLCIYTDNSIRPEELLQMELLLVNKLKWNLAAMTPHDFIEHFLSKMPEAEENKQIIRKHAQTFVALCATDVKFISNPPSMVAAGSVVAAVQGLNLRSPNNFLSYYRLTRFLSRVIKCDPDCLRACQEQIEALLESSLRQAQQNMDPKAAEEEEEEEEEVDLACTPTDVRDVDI

Compound: CS(=O)(=O)c1ccc(Nc2cc3c(C4=NCCS4)nccc3cn2)cc1 [Ex 139, 5-(4,5-dihydrothiazol-2-yl)-N-(4-(methylsulfonyl)phenyl)-2,6-naphthyridin-3-amine]
- pIC50 [1, 5]: 6.60 to 7.60
- pIC50 [2, 6]: 6.60 to 7.60
- pIC50 [3, 7]: 6.60 to 7.60
- pIC50 [4, 8]: > 7.60

Compound: C=CS(=O)(=O)c1ccc(Nc2cc3c(-c4ccccc4OC(F)(F)F)nccc3cn2)cc1 [Ex 141, 5-(2-(trifluoromethoxy)phenyl)-N-(4-(vinylsulfonyl)phenyl)-2,6-naphthyridin-3-amine]
- pIC50 [1, 9]: < 6.60
- pIC50 [2, 10]: < 6.60
- pIC50 [3, 11]: < 6.60
- pIC50 [4, 12]: 6.60 to 7.60

Compound: C=CS(=O)(=O)c1ccc(Nc2cc3c(-c4ccc5ocnc5c4)nccc3cn2)cc1 [Ex 145, 5-(benzo[d]oxazol-5-yl)-N-(4-(vinylsulfonyl)phenyl)-2,6-naphthyridin-3-amine]
- pIC50 [1, 9]: < 6.60
- pIC50 [2, 10]: < 6.60
- pIC50 [3, 11]: < 6.60
- pIC50 [4, 12]: 6.60 to 7.60

Compound: CS(=O)(=O)c1ccc(Nc2cc3c(C4=CCNCC4)nccc3cn2)cc1 [Ex 146, N-(4-(methylsulfonyl)phenyl)-5-(1,2,3,6-tetrahydropyridin-4-yl)-2,6-naphthyridin-3-amine]
- pIC50 ([1]; CDK6/CCND IC50 25-250 nM, 25-250 nM marked x): 6.60 to 7.60
- pIC50 ([2]; CDK1/CCNB IC50 >250 nM, >250 nM marked x): < 6.60
- pIC50 ([3]; CDK4/CCND IC50 25-250 nM, 25-250 nM marked x): 6.60 to 7.60
- pIC50 ([4]; CDK2/CCNE IC50 25-250 nM, 25-250 nM marked x): 6.60 to 7.60

Compound: Cc1c(-c2nccc3cnc(Nc4ccc(S(C)(=O)=O)cc4)cc23)ccc2[nH]ncc12 [Ex 148, 5-(4-methyl-1H-indazol-5-yl)-N-(4-(methylsulfonyl)phenyl)-2,6-naphthyridin-3-amine]
- pIC50 [1, 5]: 6.60 to 7.60
- pIC50 [2, 10]: < 6.60
- pIC50 [3, 7]: 6.60 to 7.60
- pIC50 [4, 8]: > 7.60

Compound: C=CS(=O)(=O)c1ccc(Nc2cc3c(C#CC)nccc3cn2)cc1 [Ex 149, 5-(prop-1-yn-1-yl)-N-(4-(vinylsulfonyl)phenyl)-2,6-naphthyridin-3-amine]
- pIC50 [1, 9]: < 6.60
- pIC50 [2, 10]: < 6.60
- pIC50 [3, 11]: < 6.60
- pIC50 [4, 8]: > 7.60

Compound: CS(=O)(=O)c1ccc(Nc2cc3c(C#C[C@H]4CC[C@H](O)CC4)nccc3cn2)cc1 [Ex 150, (1r,4r)-4-((7-((4-(methylsulfonyl)phenyl)amino)-2,6-naphthyridin-1-yl)ethynyl)cyclohexan-1-ol]
- pIC50 [1, 5]: 6.60 to 7.60
- pIC50 [2, 10]: < 6.60
- pIC50 [3, 13]: > 7.60
- pIC50 [4, 8]: > 7.60

Compound: C=CS(=O)(=O)c1ccc(Nc2cc3c(C#Cc4ccc(C#N)cc4)nccc3cn2)cc1 [Ex 156, 4-((7-((4-(vinylsulfonyl)phenyl)amino)-2,6-naphthyridin-1-yl)ethynyl)benzonitrile]
- pIC50 [1, 9]: < 6.60
- pIC50 [2, 10]: < 6.60
- pIC50 [3, 11]: < 6.60
- pIC50 [4, 12]: 6.60 to 7.60

Compound: Cc1c(-c2nccc3cnc(Nc4ccc(S(C)(=O)=O)cc4)cc23)ccc2c1cnn2C [Ex 158, 5-(1,4-dimethyl-1H-indazol-5-yl)-N-(4-(methylsulfonyl)phenyl)-2,6-naphthyridin-3-amine]
- pIC50 [1, 9]: < 6.60
- pIC50 [2, 10]: < 6.60
- pIC50 [3, 7]: 6.60 to 7.60
- pIC50 [4, 8]: > 7.60

Compound: C=CS(=O)(=O)c1ccc(Nc2cc3c(-c4ccc5cc[nH]c5c4)nccc3cn2)cc1 [Ex 162, 5-(1H-indol-6-yl)-N-(4-(vinylsulfonyl)phenyl)-2,6-naphthyridin-3-amine]
- pIC50 [1, 9]: < 6.60
- pIC50 [2, 10]: < 6.60
- pIC50 [3, 11]: < 6.60
- pIC50 [4, 8]: > 7.60

Compound: Cc1c(-c2nccc3cnc(Nc4ccc(S(C)(=O)=O)cc4)cc23)ccc2nn(C)cc12 [Ex 166, 5-(2,4-dimethyl-2H-indazol-5-yl)-N-(4-(methylsulfonyl)phenyl)-2,6-naphthyridin-3-amine]
- pIC50 [1, 5]: 6.60 to 7.60
- pIC50 [2, 10]: < 6.60
- pIC50 [3, 7]: 6.60 to 7.60
- pIC50 [4, 8]: > 7.60

Compound: Cc1nc(-c2nccc3cnc(Nc4ccc(S(C)(=O)=O)cc4)cc23)no1 [Ex 167, 5-(5-methyl-1,2,4-oxadiazol-3-yl)-N-(4-(methylsulfonyl)phenyl)-2,6-naphthyridin-3-amine]
- pIC50 [1, 9]: < 6.60
- pIC50 [2, 10]: < 6.60
- pIC50 [3, 11]: < 6.60
- pIC50 [4, 12]: 6.60 to 7.60

Compound: CS(=O)(=O)c1ccc(Nc2cc3c(-c4ccc5[nH]ncc5c4Cl)nccc3cn2)cc1 [Ex 183, 5-(4-chloro-1H-indazol-5-yl)-N-(4-(methylsulfonyl)phenyl)-2,6-naphthyridin-3-amine]
- pIC50 [1, 9]: < 6.60
- pIC50 [2, 10]: < 6.60
- pIC50 [3, 7]: 6.60 to 7.60
- pIC50 [4, 8]: > 7.60

Compound: CS(=O)(=O)c1ccc(Nc2cc3c(-c4ccc5[nH]ncc5c4F)nccc3cn2)cc1 [Ex 184, 5-(4-fluoro-1H-indazol-5-yl)-N-(4-(methylsulfonyl)phenyl)-2,6-naphthyridin-3-amine]
- pIC50 [1, 9]: < 6.60
- pIC50 [2, 10]: < 6.60
- pIC50 [3, 7]: 6.60 to 7.60
- pIC50 [4, 12]: 6.60 to 7.60

Compound: C=CS(=O)(=O)c1ccc(Nc2cc3c(-c4ccc5[nH]ccc5c4)nccc3cn2)cc1 [Ex 185, 5-(1H-indol-5-yl)-N-(4-(vinylsulfonyl)phenyl)-2,6-naphthyridin-3-amine]
- pIC50 [1, 9]: < 6.60
- pIC50 [2, 10]: < 6.60
- pIC50 [3, 11]: < 6.60
- pIC50 [4, 12]: 6.60 to 7.60

Compound: N#CC1CCN(c2nccc3cnc(Nc4ccc(S(N)(=O)=O)cc4)cc23)CC1 [Ex 187, 4-((5-(4-cyanopiperidin-1-yl)-2,6-naphthyridin-3-yl)amino)benzenesulfonamide]
- pIC50 [1, 5]: 6.60 to 7.60
- pIC50 [2, 6]: 6.60 to 7.60
- pIC50 [3, 7]: 6.60 to 7.60
- pIC50 [4, 8]: > 7.60

Compound: CS(=O)(=O)c1ccc(Nc2cc3c(C4CCN(C(=O)Nc5cccnc5)CC4)nccc3cn2)cc1 [Ex 198, 4-(7-((4-(methylsulfonyl)phenyl)amino)-2,6-naphthyridin-1-yl)-N-(pyridin-3-yl)piperidine-1-carboxamide]
- pIC50 [1, 9]: < 6.60
- pIC50 [2, 10]: < 6.60
- pIC50 [3, 11]: < 6.60
- pIC50 [4, 14]: < 6.60

Compound: COCCNC(=O)[C@H]1CC[C@H](c2nccc3cnc(Nc4ccc(S(C)(=O)=O)cc4)cc32)CC1 [Ex 199, (1r,4r)-N-(2-methoxyethyl)-4-(7-((4-(methylsulfonyl)phenyl)amino)-2,6-naphthyridin-1-yl)cyclohexane-1-carboxamide]
- pIC50 [1, 9]: < 6.60
- pIC50 [2, 10]: < 6.60
- pIC50 [3, 11]: < 6.60
- pIC50 [4, 12]: 6.60 to 7.60

Compound: CS(=O)(=O)c1ccc(Nc2cc3c(ccnc3[C@H]3CC[C@H](C(=O)NC4CCC4)CC3)cn2)cc1 [Ex 200, (1r,4r)-N-cyclobutyl-4-(7-((4-(methylsulfonyl)phenyl)amino)-2,6-naphthyridin-1-yl)cyclohexane-1-carboxamide]
- pIC50 [1, 9]: < 6.60
- pIC50 [2, 10]: < 6.60
- pIC50 [3, 11]: < 6.60
- pIC50 [4, 12]: 6.60 to 7.60

Compound: CS(=O)(=O)c1ccc(Nc2cc3c(ccnc3[C@H]3CC[C@H](C(=O)N4CCOCC4)CC3)cn2)cc1 [Ex 201, ((1r,4r)-4-(7-((4-(methylsulfonyl)phenyl)amino)-2,6-naphthyridin-1-yl)cyclohexyl)(morpholino)methanone]
- pIC50 [1, 9]: < 6.60
- pIC50 [2, 10]: < 6.60
- pIC50 [3, 11]: < 6.60
- pIC50 [4, 14]: < 6.60

Compound: CS(=O)(=O)c1ccc(Nc2cc3c(ccnc3[C@H]3CC[C@H](C(=O)Nc4ccccc4)CC3)cn2)cc1 [Ex 202, (1r,4r)-4-(7-((4-(methylsulfonyl)phenyl)amino)-2,6-naphthyridin-1-yl)-N-phenylcyclohexane-1-carboxamide]
- pIC50 [1, 9]: < 6.60
- pIC50 [2, 10]: < 6.60
- pIC50 [3, 11]: < 6.60
- pIC50 [4, 12]: 6.60 to 7.60

Compound: Cc1c(-c2nccc3cnc(Nc4ccc(S(C)(=O)=O)cc4)cc23)ccc2nn(CCO)cc12 [Ex 206, 2-(4-methyl-5-(7-((4-(methylsulfonyl)phenyl)amino)-2,6-naphthyridin-1-yl)-2H-indazol-2-yl)ethan-1-ol]
- pIC50 [1, 9]: < 6.60
- pIC50 [2, 10]: < 6.60
- pIC50 [3, 11]: < 6.60
- pIC50 [4, 12]: 6.60 to 7.60

Compound: Cc1c(-c2nccc3cnc(Nc4ccc(S(C)(=O)=O)cc4)cc23)ccc2c1cnn2CC1CNC1 [Ex 207, 5-(1-(azetidin-3-ylmethyl)-4-methyl-1H-indazol-5-yl)-N-(4-(methylsulfonyl)phenyl)-2,6-naphthyridin-3-amine]
- pIC50 ([1]; <25 nM, read-out: CDK6/CCND IC50 <25 nM): > 7.60
- pIC50 [2, 6]: 6.60 to 7.60
- pIC50 [3, 13]: > 7.60
- pIC50 [4, 8]: > 7.60
